Results reported in BindingDB's records for doi:10.1002/cbic.201000376 (Gyeongsang National University, 2010).

target: Alpha-glucosidase MAL12 (Saccharomyces cerevisiae (strain ATCC 204508 / S288c), UniProt P53341); experiment: Inhibition Assay
Procedure: All enzymatic activities were determined by using the appropriate substrate (p-nitrophenyl-alpha-D-glucopyranoside, p-nitrophenyl-beta-D-gulcopyranoside, o-nitrophenyl-alpha-D-manno-pyranoside, p-nitrohenyl-alpha-D-galactopyranoside and strach at the pH or each enzyme.

Sequence of Alpha-glucosidase MAL12 (P53341 whole entry): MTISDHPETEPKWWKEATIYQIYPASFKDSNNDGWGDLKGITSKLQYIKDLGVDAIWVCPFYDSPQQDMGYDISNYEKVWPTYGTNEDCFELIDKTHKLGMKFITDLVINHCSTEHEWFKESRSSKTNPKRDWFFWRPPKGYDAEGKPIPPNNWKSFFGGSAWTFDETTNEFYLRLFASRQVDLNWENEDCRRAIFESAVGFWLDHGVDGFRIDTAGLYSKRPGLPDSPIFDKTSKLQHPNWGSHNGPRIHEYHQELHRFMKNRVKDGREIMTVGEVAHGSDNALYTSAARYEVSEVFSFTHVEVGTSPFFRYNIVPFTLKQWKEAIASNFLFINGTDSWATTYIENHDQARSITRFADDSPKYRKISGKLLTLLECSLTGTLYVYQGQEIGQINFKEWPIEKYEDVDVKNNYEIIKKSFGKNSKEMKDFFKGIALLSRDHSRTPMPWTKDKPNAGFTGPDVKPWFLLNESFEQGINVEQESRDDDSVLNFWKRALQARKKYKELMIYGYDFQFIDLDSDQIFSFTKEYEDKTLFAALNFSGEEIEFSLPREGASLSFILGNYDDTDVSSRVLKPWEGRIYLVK

IC50 [µM] | Ki [µM] | SMILES
18.5 | 9.4 | O=C(Nc1ccc(/C=C/c2ccc(O)cc2)cc1)Nc1ccc(F)cc1F [Urea derivative, 16]
29.1 | 17 | O=C(Nc1ccccc1)Nc1ccc(/C=C/c2ccc(O)cc2)cc1 [Urea derivative, 14]
8.4 | 3.2 | O=C(Nc1ccc(/C=C/c2ccc(O)c(O)c2)cc1)Nc1ccc(F)cc1F [Urea derivative, 12]
19.8 | 7.2 | O=C(Nc1ccc(F)cc1)Nc1ccc(/C=C/c2ccc(O)c(O)c2)cc1 [Urea derivative, 11]
64.3 | – | O=C(Nc1ccc(/C=C/c2cc(O)cc(O)c2)cc1)Nc1ccc(F)cc1F [Urea derivative, 19]
28.8 | 12.1 | O=C(Nc1ccc(/C=C/c2ccc(O)c(O)c2)cc1)Nc1ccc(C(F)(F)F)cc1 [Urea derivative, 10]
42.1 | 10.6 | O=C(Nc1ccccc1)Nc1ccc(/C=C/c2ccc(O)c(O)c2)cc1 [Urea derivative, 6]
26.4 | 21.5 | Oc1ccc(/C=C/c2cc(O)cc(O)c2)cc1 [5-[(E)-2-(4-hydroxyphenyl)ethenyl]benzene-1,3-diol]
68.5 | – | Nc1ccc(NC(=O)Nc2ccc(/C=C/c3ccc(O)c(O)c3)cc2)cc1 [Urea derivative, 8]
63.6 | – | Cc1ccc(NC(=O)Nc2ccc(/C=C/c3ccc(O)c(O)c3)cc2)cc1 [Urea derivative, 9]
58.8 | – | O=C(Nc1ccccc1)Nc1ccc(/C=C/c2cc(O)cc(O)c2)cc1 [Urea derivative, 17]
105 | – | COc1ccc(NC(=O)Nc2ccc(/C=C/c3cc(O)cc(O)c3)cc2)cc1 [Urea derivative, 18]
> 200 | – | CNc1ccc(/C=C/c2ccc(O)c(O)c2)cc1 [Stilbene derivative, 4]
14.3 | 4.6 | O=C(Nc1ccc(Cl)cc1)Nc1ccc(/C=C/c2ccc(O)c(O)c2)cc1 [Urea derivative, 13]
> 200 | – | CC(=O)Nc1ccc(/C=C/c2ccc(O)c(O)c2)cc1 [Stilbene derivative, 5]
> 200 | – | Nc1ccc(/C=C/c2ccc(O)cc2)cc1
60.1 | – | COc1ccc(NC(=O)Nc2ccc(/C=C/c3ccc(O)cc3)cc2)cc1 [Urea derivative, 15]
19.5 | 10.5 | COc1ccc(NC(=O)Nc2ccc(/C=C/c3ccc(O)c(O)c3)cc2)cc1 [Urea derivative, 7]
